Where “and” joins values, the source holds several entries; their conditions need not be identical. Equal entries are not always repeated.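 Step 1: Grow cells in 96-well plates. Step 2: Expose to compound for 48 hours at 5 concentrations. Step 3: Interpolate endpoints linearly; if unreached, use highest concentration. GI50: concentration for 50% inhibition of growth. TGI marks complete inhibition of growth.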
How the values were obtained:
Experiment in all cases: NCI-60 cell line screen, 48 h
MDA-MB-435 = tested on: MDA-MB-435
BT-549 breast = tested on: BT-549 breast
UO-31 renal = tested on: UO-31 renal
MDA-MB-231 breast = tested on: MDA-MB-231 breast
SF-268 CNS = tested on: SF-268 CNS
HCC-2998 colon = tested on: HCC-2998 colon
EKVX NSCLC = tested on: EKVX NSCLC
SNB-75 CNS = tested on: SNB-75 CNS
TK-10 renal = tested on: TK-10 renal
LOX IMVI melanoma = tested on: LOX IMVI melanoma

SMILES	GI50 (MDA-MB-435)	TGI (MDA-MB-435)	GI50 (BT-549 breast)	TGI (BT-549 breast)	GI50 (UO-31 renal)	TGI (UO-31 renal)	GI50 (MDA-MB-231 breast)	TGI (MDA-MB-231 breast)	GI50 (SF-268 CNS)	TGI (SF-268 CNS)	GI50 (HCC-2998 colon)	TGI (HCC-2998 colon)	GI50 (EKVX NSCLC)	TGI (EKVX NSCLC)	GI50 (SNB-75 CNS)	TGI (SNB-75 CNS)	GI50 (TK-10 renal)	TGI (TK-10 renal)	GI50 (LOX IMVI melanoma)	TGI (LOX IMVI melanoma)
CN(C)c1cc2c(Nc3ccc4nc(Cc5ccccc5)[nH]c4c3)ncnc2cn1	> 20.9 µM	> 25 µM	> 18.2 µM	> 25 µM	12.2 µM	> 25 µM	> 17.4 µM	> 25 µM	> 23.4 µM	> 25 µM	> 25 µM	> 25 µM	8.68 µM	> 25 µM	> 13.9 µM	> 25 µM	4.9 µM	> 25 µM	> 17.4 µM	> 25 µM
O=C1C(CN(Cc2ccccc2)Cc2ccccc2)CCCC1CN(Cc1ccccc1)Cc1ccccc1 (configuration not stated)	–	> 100 µM	–	> 100 µM	16.9 µM and 47.6 µM	27.3 µM and > 100 µM	> 100 µM and 38.3 µM	> 100 µM	33.3 µM and > 100 µM	53 µM and > 100 µM	–	> 100 µM	36.8 µM and > 100 µM	59.9 µM and > 100 µM	31.1 µM and 76.2 µM	49.1 µM and > 100 µM	14.7 µM and > 100 µM	28.3 µM and > 100 µM	14.1 µM and > 77.1 µM	28.3 µM and > 100 µM
CCNC(=O)Nc1ccc(-c2nc3c(c(N4CCOC[C@@H]4C)n2)CCN(C2COC2)C3)cc1	0.3 µM and 0.318 µM	> 25.6 µM	0.175 µM and 0.115 µM	1.96 µM and 1.79 µM	0.101 µM and 0.0801 µM	2.39 µM and 1.45 µM	0.392 µM and 0.267 µM	> 48.2 µM	0.591 µM and 0.29 µM	> 100 µM	0.748 µM and 0.398 µM	> 100 µM	0.323 µM	> 9.65 µM	0.104 µM and 0.0737 µM	1.13 µM and 1.1 µM	0.195 µM and 0.128 µM	3.86 µM and 3.13 µM	0.411 µM and 0.329 µM	> 100 µM
N#Cc1cc(-c2ccccc2)[nH]c1-c1nccc2ccccc12	10.5 µM	78.1 µM	10.1 µM	> 100 µM	6.81 µM	> 100 µM	19.4 µM	> 100 µM	22.6 µM	> 100 µM	18.9 µM	> 100 µM	5.86 µM	> 100 µM	13.7 µM	> 100 µM	25.3 µM	> 100 µM	15.6 µM	> 100 µM
COc1ccc(C2=C(Br)C(=O)OC2)cc1Cl	27.4 µM	> 100 µM	22.7 µM	64.7 µM	39.6 µM	> 100 µM	24.7 µM	69.9 µM	32.9 µM	99.6 µM	14.9 µM	38.2 µM	16.7 µM	71.4 µM	55.8 µM	> 100 µM	26.8 µM	77.9 µM	18.9 µM	46.5 µM
NC(=O)Cc1ccccc1Oc1nccc(-c2c(-c3ccc(F)cc3)ncn2C2CCNCC2)n1	> 25 µM	> 25 µM	> 25 µM	> 25 µM	> 25 µM	> 25 µM	> 25 µM	> 25 µM	> 25 µM	> 25 µM	> 25 µM	> 25 µM	> 25 µM	> 25 µM	> 19.1 µM	> 25 µM	> 25 µM	> 25 µM	> 25 µM	> 25 µM
COC(=O)C1=C(C(=O)Nc2cccnc2)C2OC1(C(Cc1ccccc1)Oc1ccccc1)C1OC21 (configuration not stated)	3.79 µM	13.6 µM	3.43 µM	12.8 µM	1.24 µM	2.49 µM	2.77 µM	6.52 µM	13 µM	27.9 µM	14.7 µM	30.3 µM	11.8 µM	27.2 µM	8.28 µM	21.1 µM	1.51 µM	2.85 µM	1.83 µM	3.68 µM
CC(C)[C@@H]1NC(=O)[C@]2(C)CSC(=N2)c2csc(n2)CNC(=O)C[C@@H](/C=C/CCS)OC1=O	0.0612 µM	4.17 µM	0.397 µM	> 100 µM	0.605 µM	6.5 µM	0.317 µM	> 47.4 µM	0.181 µM	> 100 µM	0.089 µM	0.442 µM	0.198 µM	> 100 µM	0.0686 µM	> 100 µM	0.0864 µM	1.35 µM	0.131 µM	0.355 µM
CCCCCCCCCCCCCCCCCC(=O)[O][Sn]([CH2]CCC)([CH2]CCC)[CH2]CCC	0.149 µM	0.441 µM	0.138 µM	0.287 µM	0.161 µM	0.34 µM	0.125 µM	0.361 µM	0.141 µM	0.337 µM	0.139 µM	0.279 µM	0.0713 µM	0.297 µM	0.124 µM	0.269 µM	0.164 µM	0.311 µM	0.133 µM	0.38 µM
COc1ccccc1/C=C1\CCC(CN(C)C)C1=O (configuration not stated)	–	25.2 µM	–	28.1 µM	–	18 µM	–	5.78 µM	–	29.7 µM	–	14.2 µM	–	38.9 µM	–	17.8 µM	–	15.7 µM	–	4.67 µM
Nc1cccc(-c2nc3sccn3c2-c2ccnc(NCCCNS(=O)(=O)c3ccc(C(F)(F)F)cc3)n2)c1	3.21 µM	12.3 µM	2.95 µM	13.1 µM	3.2 µM	27.5 µM	4.85 µM	94 µM	3.97 µM	49.6 µM	5.29 µM	92 µM	6.09 µM	86.1 µM	1.83 µM	23.1 µM	11.1 µM	> 100 µM	3.27 µM	16.1 µM
CCN1CCN(CCNc2nccc(-c3c(-c4cccc(O)c4)nc4sccn34)n2)S1(=O)=O	0.313 µM and 0.376 µM	14.5 µM and 5.79 µM	20.4 µM and 6.31 µM	32.5 µM and 76.6 µM	15.1 µM and 5.75 µM	32.5 µM and 74 µM	10.5 µM and 7.3 µM	32.5 µM and > 100 µM	23.4 µM and 19.9 µM	32.5 µM and > 100 µM	32.1 µM and 29.4 µM	32.5 µM and > 100 µM	> 32.5 µM and 34.6 µM	> 100 µM	12.6 µM and 6.84 µM	32.5 µM and > 100 µM	19.4 µM and 9.68 µM	32.5 µM and > 100 µM	4.96 µM and 2.53 µM	25.7 µM and 23.5 µM
O=C(Nc1cccnc1)c1cccs1	2.43 µM	> 100 µM	6.78 µM	> 100 µM	> 100 µM	> 100 µM	81.3 µM	> 100 µM	4.54 µM	> 100 µM	5.56 µM	> 100 µM	> 100 µM	> 100 µM	4.77 µM	> 100 µM	> 100 µM	> 100 µM	> 100 µM	> 100 µM

From PubChem BioAssay (NCI)
